According to US10730857B2, “Benzocyanine compounds” (Pierce Biotechnology, Inc., priority 2011, dated 2020):

Assays:
[1] = Absorbance/emission spectral properties and fluorescence intensity of the dyes; format: physicochemical; settings: 10 μg/ml in PBS buffer pH 7.2, FIG. 1
Method: Emission/excitation profiles for inventive and commercial compounds was determined by reconstituting the compounds in DMF at 10 mg/ml and then diluting in PBS buffer pH 7.2 to 10 μg/ml.

streptavidin (SA) = streptavidin (SA) (Streptomyces avidinii, UniProt P22629); assay: Labeling efficiency (degree of labeling) of streptavidin
Chain of streptavidin (SA) (P22629 25-183, species assumed): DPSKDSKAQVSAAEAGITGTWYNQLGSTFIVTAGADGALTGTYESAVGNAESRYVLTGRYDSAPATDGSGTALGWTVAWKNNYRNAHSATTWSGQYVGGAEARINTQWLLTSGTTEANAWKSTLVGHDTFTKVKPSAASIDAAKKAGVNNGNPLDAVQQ
Method: Inventive and commercial compounds, each as the NHS ester, were conjugated to goat anti-mouse (GAM) antibodies, goat anti-rabbit (GAR) antibodies, and streptavidin (SA). GAM, GAR, and SA, at a concentration of 10 mg/ml in phosphate buffered saline (PBS), were dialyzed against 50 mM borate buffer, pH 8.5. […]
The labeled compounds, also termed dyes or labels, were subjected to Pierce Dye Removal Resin (PDDR) to remove the unlabeled (free) compound; 100 μl of the packed resin was used per mg of protein purified. The purified antibody-labeled dyes were then diluted 1:50 in PBS and scanned for absorbance from 700 nm to 230 nm to determine the protein concentration, and to determine the mole dye to mole protein ratio. Each conjugate was diluted 1:10 in 50% glycerol and heated in the presence of 10 mM dithiothreitol (DTT) for 5 min at 95° C., then separated by electrophoresis on polyacrylamide gels in the presence of sodium dodecyl sulfate (SDS-PAGE). The gels were scanned using the Typhoon 9400 Imager to verify removal of the unconjugated compound. Labeling efficiency was compared, with results showing degree of labeling below.

lamin A in A549 cells = assay: Immunofluorescence, mouse anti-lamin A, A549 cells (FIG. 15); format: cell-based; settings: GAM conjugates at 4× to 12× molar excess
Method: The inventive compounds were evaluated for immunofluorescence in cell based assays using the following protocol. Frozen A549 cell plates stored at −20° C. were placed for 30 min 50° C. Storage buffer (PBS) was removed and the cells were permeabilized for 15 min (100 μl/well) with 0.1% Triton-X100 in 1×PBS buffer. Plates were blocked for 30 min in 2% BSA in 1×PBS-0.1% Trion-X100. Primary antibodies diluted in 2% BSA in 1×PBS-0.1% Trion-X100 were added to the plates (column 1-11; column 12 included only blocker) and incubated […]. Mouse anti-lamin A was added at 1 μg/ml and rabbit anti-lamin B1 was added at 3 μg/ml. After overnight incubation, the antibody solution was removed from the plates and the plates were washed with PBS-0.5% Tween-20 (2×100 μl/well). GAM and GAR secondary antibodies labeled with DyLight 680-NHS, DyLight 680B-NHS, 679 Compound 1-NHS and Company B Compound-NHS were diluted to 4 μg/ml in PBS, added and incubated for one hour at room temperature. The plates were then washed three times with 100 μl/well PBS, and Hoechst stain diluted to 0.1 μg/ml in PBS was added to each well (100 μl/well). The plates were scanned on ArrayScan Plate Reader for imaging and quantitation.

lamin A in U20S cells = assay: Immunofluorescence, mouse anti-lamin A, U20S cells (FIG. 16); format: cell-based
Method: (§1) The inventive compounds and commercial dye were evaluated for immunofluorescence in a second cell based assay using the following protocol. Frozen U20S cell plates stored at −20° C. were placed overnight at 4° C. Storage buffer (PBS) was removed and the cells were permeabilized for 15 min (100 μl/well) with 0.1% Triton-X100 in 1×PBS buffer. Plates were blocked for 30 min in 2% BSA in 1×PBS-0.1% Trion-X100. Primary antibodies diluted in 2% BSA in 1×PBS-0.1% Trion-X100 were added to the plates (column 1-11; column 12 included only blocker) and incubated five hours at room temperature. Mouse anti-lamin A was added at 2 μg/ml and rabbit anti-lamin B1 was added at 4 μg/ml. After incubation, the antibody solution was removed from the plates and the plates were washed PBS-0.5% Tween-20 (2×100 μl/well). Next, GAM and GAR secondary antibodies labeled with DyLight 680-NHS, DyLight 680B-NHS, 679 Compound 1-NHS, and Cy5.5 Mono Ester were diluted to 4 μg/ml in PBS and incubated with the cells for one hour at room temperature. GAM and GAR conjugated to DyLight 680-NHS, DyLight 680B-NHS, 679 Compound 1-NHS, and Company B Compound at 10× molar excess were diluted to 4 μg/ml in PBS and then serially diluted 1:1 in the plate to the following concentrations: 2 μg/ml, 1 μg/ml, 0.5 μg/ml, 0.25 μg/ml, 0.125 μg/ml and/or 0.0625 μg/ml. The plates were washed 3× with 100 μl/well PBS, and Hoechst stain diluted to 0.1 μg/ml in PBS was added to each well (100 μl/well). The plates were scanned on ArrayScan Plate Reader for imaging and quantitation.

lamin B1 in U20S cells = assay: Immunofluorescence, rabbit anti-lamin B1, U20S cells, GAR conjugates; format: cell-based
Method: as §1, with “GAM and GAR conjugated to DyLight 680-NHS, DyLight 680B-NHS, 679 Compound 1-NHS, and Company B Compound at 10× molar excess were diluted to 4 μg/ml in PBS and then serially diluted 1:1 in the plate to the following concentrations: 2 μg/ml, 1 μg/ml, 0.5 μg/ml, 0.25 μg/ml, 0.125 μg/ml and/or 0.0625 μg/ml. The plates were washed 3× with 100 μl/well PBS, and Hoechst stain diluted to 0.1 μg/ml in PBS was added to each well (100 μl/well).” left out

COCC[N+]1=C(/C=C/C=C/C=C2/N(CCCCCC(=O)O)c3ccc4c(S(=O)(=O)[O-])cc(S(=O)(=O)[O-])cc4c3C2(C)C)C(C)(CCCS(=O)(=O)[O-])c2c1ccc1c(S(=O)(=O)[O-])cc(S(=O)(=O)[O-])cc21.[Na+].[Na+].[Na+].[Na+] (centres unmarked) [679 Compound 1, 6-((E)-2-((2E,4E)-5-(3-(2-methoxyethyl)-1-methyl-6,8-disulfonato-1-(3-sulfonatopropyl)-1H-benzo[e]indol-3-ium-2-yl)penta-2,4-dien-1-ylidene)-1,1-dimethyl-6,8-disulfonato-1H-benzo[e]indol-3(2H)-yl)hexanoate]
Max Abs ([1]; Cary UV spectrophotometer): 679 nm
Max E ([1]; emission, Tecan Safire): 704 nm
degree of labeling (streptavidin (SA); SA-6X molar excess): 4.0
degree of labeling (streptavidin (SA); SA-8X molar excess): 5.0
performance in immunofluorescence (in words) (lamin A in A549 cells): very similar performance to corresponding DyLight 680B conjugates
Mean Total Intensity 2X (lamin A in U20S cells; GAM conjugated at 2X molar excess, FIG. 16): 232482
Mean Total Intensity 3X (lamin A in U20S cells; GAM conjugated at 3X molar excess, FIG. 16): 263580
Mean Total Intensity 4X (lamin A in U20S cells; GAM conjugated at 4X molar excess, FIG. 16): 330865
S/B (in words) (lamin A in U20S cells; GAM conjugates at the low molar excesses): comparable to each other and to DyLight 680
Overall fluorescence signal intensity (in words) (lamin B1 in U20S cells; GAR conjugates): about two times higher compared to DyLight 680
S/B (in words) (lamin B1 in U20S cells; GAR labeled at 2×, 3× or 4× molar excess): comparable to each other and to DyLight 680 conjugates
